PMC12748989 (Nature Communications, 2025)

Columns and labels:
PBMC = details: 12.5 µM

SMILES | Average (percentage cell inhibition), Dmastoparan MDA-MB231 12.5uM (MDA-MB-231 cells) [%] | Average (percentage cell inhibition), Mastoparan PBMC (PBMC) [%]
CC[C@H](C)[C@H](N)C(=O)N[C@@H](CC(N)=O)C(=O)N[C@@H](CC(C)C)C(=O)N[C@@H](CCCCN)C(=O)N[C@@H](C)C(=O)N[C@@H](CC(C)C)C(=O)N[C@@H](C)C(=O)N[C@@H](C)C(=O)N[C@@H](CC(C)C)C(=O)N[C@@H](C)C(=O)N[C@@H](C)C(=O)N[C@@H](CCCCN)C(=O)N[C@H](C(=O)N[C@@H](CC(C)C)C(N)=O)[C@@H](C)CC [A11] | 45.8441 | 11.43
CC[C@H](C)[C@H](N)C(=O)N[C@@H](CC(N)=O)C(=O)N[C@@H](CC(C)C)C(=O)N[C@@H](CCCCN)C(=O)N[C@@H](C)C(=O)N[C@@H](CC(C)C)C(=O)N1CCC[C@H]1C(=O)N[C@@H](C)C(=O)N[C@@H](CC(C)C)C(=O)N[C@@H](C)C(=O)N[C@@H](CCCCN)C(=O)N[C@@H](CCCCN)C(=O)N[C@H](C(=O)N[C@@H](CC(C)C)C(N)=O)[C@@H](C)CC [P7] | -0.6456 | -9.322
CC[C@H](C)[C@H](N)C(=O)N[C@@H](CC(N)=O)C(=O)N[C@@H](CC(C)C)C(=O)N[C@@H](CCC(=O)O)C(=O)N[C@@H](C)C(=O)N[C@@H](CC(C)C)C(=O)N[C@@H](C)C(=O)N[C@@H](C)C(=O)N[C@@H](CC(C)C)C(=O)N[C@@H](C)C(=O)N[C@@H](CCCCN)C(=O)N[C@@H](CCCCN)C(=O)N[C@H](C(=O)N[C@@H](CC(C)C)C(N)=O)[C@@H](C)CC [E4] | 27.9326 | 5.1636
CC[C@H](C)[C@H](N)C(=O)N[C@@H](CC(N)=O)C(=O)N[C@@H](CC(C)C)C(=O)N[C@@H](CCCCN)C(=O)N[C@@H](C)C(=O)N[C@@H](Cc1c[nH]cn1)C(=O)N[C@@H](C)C(=O)N[C@@H](C)C(=O)N[C@@H](CC(C)C)C(=O)N[C@@H](C)C(=O)N[C@@H](CCCCN)C(=O)N[C@@H](CCCCN)C(=O)N[C@H](C(=O)N[C@@H](CC(C)C)C(N)=O)[C@@H](C)CC [H6] | 1.275 | -12.6494
CC[C@H](C)[C@H](N)C(=O)N[C@@H](CC(N)=O)C(=O)N[C@@H](CC(C)C)C(=O)N[C@@H](CCCCN)C(=O)N[C@@H](C)C(=O)N[C@@H](CCC(N)=O)C(=O)N[C@@H](C)C(=O)N[C@@H](C)C(=O)N[C@@H](CC(C)C)C(=O)N[C@@H](C)C(=O)N[C@@H](CCCCN)C(=O)N[C@@H](CCCCN)C(=O)N[C@H](C(=O)N[C@@H](CC(C)C)C(N)=O)[C@@H](C)CC [Q6] | -10.4473 | -3.273
CC[C@H](C)[C@H](N)C(=O)N[C@@H](CC(N)=O)C(=O)N[C@@H](CC(C)C)C(=O)N[C@@H](CCCCN)C(=O)N[C@@H](C)C(=O)N[C@@H](CC(C)C)C(=O)N[C@@H](C)C(=O)N[C@@H](C)C(=O)N[C@@H](CC(C)C)C(=O)N[C@@H](CO)C(=O)N[C@@H](CCCCN)C(=O)N[C@@H](CCCCN)C(=O)N[C@H](C(=O)N[C@@H](CC(C)C)C(N)=O)[C@@H](C)CC [S10] | 30.5653 | 1.271
CC[C@H](C)[C@H](N)C(=O)N[C@@H](CC(N)=O)C(=O)N[C@@H](CC(C)C)C(=O)N[C@@H](CCCCN)C(=O)N[C@@H](C)C(=O)N[C@@H](CC(C)C)C(=O)N[C@@H](C)C(=O)N[C@@H](CCCCN)C(=O)N[C@@H](CC(C)C)C(=O)N[C@@H](C)C(=O)N[C@@H](CCCCN)C(=O)N[C@@H](CCCCN)C(=O)N[C@H](C(=O)N[C@@H](CC(C)C)C(N)=O)[C@@H](C)CC [K8] | 44.6441 | 13.8127
CC[C@H](C)[C@H](N)C(=O)N[C@@H](CC(N)=O)C(=O)N[C@@H](CC(C)C)C(=O)N[C@@H](C)C(=O)N[C@@H](C)C(=O)N[C@@H](CC(C)C)C(=O)N[C@@H](C)C(=O)N[C@@H](C)C(=O)N[C@@H](CC(C)C)C(=O)N[C@@H](C)C(=O)N[C@@H](CCCCN)C(=O)N[C@@H](CCCCN)C(=O)N[C@H](C(=O)N[C@@H](CC(C)C)C(N)=O)[C@@H](C)CC [A4] | 36.5883 | 11.5193
CC[C@H](C)[C@H](N)C(=O)N[C@@H](CC(N)=O)C(=O)N[C@@H](CC(C)C)C(=O)N[C@@H](CCCCN)C(=O)N[C@@H](C)C(=O)NCC(=O)N[C@@H](C)C(=O)N[C@@H](C)C(=O)N[C@@H](CC(C)C)C(=O)N[C@@H](C)C(=O)N[C@@H](CCCCN)C(=O)N[C@@H](CCCCN)C(=O)N[C@H](C(=O)N[C@@H](CC(C)C)C(N)=O)[C@@H](C)CC [G6] | 27.1038 | 3.256
CC[C@H](C)[C@H](N)C(=O)N[C@@H](CC(N)=O)C(=O)N[C@@H](CC(C)C)C(=O)N[C@@H](CCCCN)C(=O)N[C@@H](C)C(=O)N[C@@H](CC(C)C)C(=O)N[C@@H](C)C(=O)N[C@@H](C)C(=O)N[C@@H](CC(C)C)C(=O)N[C@@H](C)C(=O)N[C@@H](CCC(N)=O)C(=O)N[C@@H](CCCCN)C(=O)N[C@H](C(=O)N[C@@H](CC(C)C)C(N)=O)[C@@H](C)CC [Q11] | 41.2471 | 14.9552
CC[C@H](C)[C@H](N)C(=O)N[C@@H](CC(N)=O)C(=O)N[C@@H](CC(C)C)C(=O)N[C@@H](CCCCN)C(=O)N[C@@H](C)C(=O)N[C@@H](Cc1c[nH]c2ccccc12)C(=O)N[C@@H](C)C(=O)N[C@@H](C)C(=O)N[C@@H](CC(C)C)C(=O)N[C@@H](C)C(=O)N[C@@H](CCCCN)C(=O)N[C@@H](CCCCN)C(=O)N[C@H](C(=O)N[C@@H](CC(C)C)C(N)=O)[C@@H](C)CC [W6] | 42.8966 | 18.297
CC[C@H](C)[C@H](N)C(=O)N[C@@H](CC(N)=O)C(=O)N[C@@H](CC(C)C)C(=O)N[C@@H](CCCCN)C(=O)N[C@@H](Cc1ccc(O)cc1)C(=O)N[C@@H](CC(C)C)C(=O)N[C@@H](C)C(=O)N[C@@H](C)C(=O)N[C@@H](CC(C)C)C(=O)N[C@@H](C)C(=O)N[C@@H](CCCCN)C(=O)N[C@@H](CCCCN)C(=O)N[C@H](C(=O)N[C@@H](CC(C)C)C(N)=O)[C@@H](C)CC [Y5] | 43.7779 | 12.3024
CC[C@H](C)[C@H](N)C(=O)N[C@@H](CC(N)=O)C(=O)N[C@@H](CC(C)C)C(=O)N[C@@H](Cc1c[nH]cn1)C(=O)N[C@@H](C)C(=O)N[C@@H](CC(C)C)C(=O)N[C@@H](C)C(=O)N[C@@H](C)C(=O)N[C@@H](CC(C)C)C(=O)N[C@@H](C)C(=O)N[C@@H](CCCCN)C(=O)N[C@@H](CCCCN)C(=O)N[C@H](C(=O)N[C@@H](CC(C)C)C(N)=O)[C@@H](C)CC [H4] | 21.387 | -2.6725
CC[C@H](C)[C@H](N)C(=O)N[C@@H](CC(N)=O)C(=O)N[C@@H](CC(C)C)C(=O)N[C@@H](CCCCN)C(=O)N[C@@H](C)C(=O)N[C@@H](CC(C)C)C(=O)N[C@@H](C)C(=O)N[C@@H](C)C(=O)N[C@@H](CC(C)C)C(=O)N[C@@H](C)C(=O)N[C@@H](CCCCN)C(=O)N[C@@H](CCCCN)C(=O)N[C@H](C(=O)N[C@@H](CC(C)C)C(N)=O)[C@@H](C)CC [Lab Mastoparan L, reference compound] | 41.709 | 12.353
CC[C@H](C)[C@H](N)C(=O)N[C@@H](CC(N)=O)C(=O)N[C@@H](CC(C)C)C(=O)N[C@@H](CCCCN)C(=O)N[C@@H](C)C(=O)N[C@@H](CC(C)C)C(=O)N[C@@H](C)C(=O)N[C@@H](C)C(=O)N[C@@H](CC(C)C)C(=O)N[C@@H](C)C(=O)N[C@@H](CCCCN)C(=O)N[C@@H](CCCCN)C(=O)N[C@H](C(=O)N[C@@H](Cc1ccc(O)cc1)C(N)=O)[C@@H](C)CC [Y14] | 29.2623 | -0.4376
CC[C@H](C)[C@H](N)C(=O)N[C@@H](CC(N)=O)C(=O)N[C@@H](CC(C)C)C(=O)N[C@@H](CCCCN)C(=O)N[C@@H](C)C(=O)N[C@@H](CC(C)C)C(=O)N[C@@H](C)C(=O)N[C@@H](C)C(=O)N[C@@H](CO)C(=O)N[C@@H](C)C(=O)N[C@@H](CCCCN)C(=O)N[C@@H](CCCCN)C(=O)N[C@H](C(=O)N[C@@H](CC(C)C)C(N)=O)[C@@H](C)CC [S9] | 27.2293 | -4.8979
CC[C@H](C)[C@H](N)C(=O)N[C@@H](CC(N)=O)C(=O)N[C@@H](CC(C)C)C(=O)N[C@@H](CCCCN)C(=O)N[C@@H](C)C(=O)N[C@@H](CC(C)C)C(=O)N[C@@H](C)C(=O)N[C@@H](C)C(=O)N[C@@H](Cc1c[nH]c2ccccc12)C(=O)N[C@@H](C)C(=O)N[C@@H](CCCCN)C(=O)N[C@@H](CCCCN)C(=O)N[C@H](C(=O)N[C@@H](CC(C)C)C(N)=O)[C@@H](C)CC [W9] | 26.5648 | 6.531
CC[C@H](C)[C@H](N)C(=O)N[C@@H](CC(N)=O)C(=O)N[C@@H](CC(C)C)C(=O)N[C@@H](CCCCN)C(=O)N[C@@H](C)C(=O)N[C@@H](CC(C)C)C(=O)N[C@@H](C)C(=O)N[C@@H](C)C(=O)N[C@@H](CC(C)C)C(=O)N[C@@H](C)C(=O)N[C@@H](CCCCN)C(=O)N[C@@H](CCCCN)C(=O)N1CCC[C@H]1C(=O)N[C@@H](CC(C)C)C(N)=O [P13] | -16.5854 | -11.6187
CC[C@H](C)[C@H](N)C(=O)N[C@@H](CC(N)=O)C(=O)N[C@@H](CC(C)C)C(=O)N[C@@H](CCCCN)C(=O)N[C@@H](C)C(=O)N[C@@H](CC(C)C)C(=O)N[C@@H](CCC(N)=O)C(=O)N[C@@H](C)C(=O)N[C@@H](CC(C)C)C(=O)N[C@@H](C)C(=O)N[C@@H](CCCCN)C(=O)N[C@@H](CCCCN)C(=O)N[C@H](C(=O)N[C@@H](CC(C)C)C(N)=O)[C@@H](C)CC [Q7] | 23.653 | 9.246
